From PubChem BioAssay (NCI)
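Grown in 96-well plates, cells were treated for 48 hours with each compound at five concentrations. Insufficient inhibition: endpoint recorded as highest concentration tested. TGI marks complete inhibition of growth.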 Where a SMILES comes first, the peptide text is derived from it. Peptide text beside a SMILES is read from it. [ ]: non-standard residue; d: D form. The star is where a group is joined. * marks the point of attachment. Phe(4-NO2) = N[CH](Cc1ccc([N+](=O)[O-])cc1)C(=O)O; Boc = CC(C)(C)OC(=O)*; OtBu = CC(C)(C)O*

Columns and labels:
Assay in all cases: inhibition of tumour cell growth, NCI panel, 48 h
LOX IMVI melanoma = tested on: LOX IMVI melanoma
A549 NSCLC = tested on: A549 NSCLC
COLO 205 colon = tested on: COLO 205 colon
T-47D breast = tested on: T-47D breast
HCT-15 colon = tested on: HCT-15 colon
RXF 393 renal = tested on: RXF 393 renal
UACC-257 melanoma = tested on: UACC-257 melanoma
OVCAR-5 ovarian = tested on: OVCAR-5 ovarian
IGROV1 ovarian = tested on: IGROV1 ovarian
BT-549 breast = tested on: BT-549 breast

SMILES	TGI (LOX IMVI melanoma) [µM]	TGI (A549 NSCLC) [µM]	TGI (COLO 205 colon) [µM]	TGI (T-47D breast) [µM]	TGI (HCT-15 colon) [µM]	TGI (RXF 393 renal) [µM]	TGI (UACC-257 melanoma) [µM]	TGI (OVCAR-5 ovarian) [µM]	TGI (IGROV1 ovarian) [µM]	TGI (BT-549 breast) [µM]
C/C(=C/CC[C@](C)(OC1OC(CO)C(O)C(O)C1O)[C@H]1CC[C@]2(C)[C@@H]1CC[C@@H]1[C@@]3(C)CC[C@H](O)C(C)(C)[C@@H]3C[C@H](O)[C@]12C)CO (stereo not given in full)	33.9	> 100	41	60.4	57.5	19.4	55.3	> 100	> 100	31.2
Cc1cc(S(=O)(=O)NC(=NCC(=O)NN)NN)c(S)cc1Cl	> 10	> 10	> 10	> 10	> 10	> 10	> 10	> 10	> 10	> 10
COC(=O)C(Cc1ccc([N+](=O)[O-])cc1)NC(=O)C(CC(=O)OC(C)(C)C)NC(=O)OC(C)(C)C (stereo not given) (Boc-Asp(OtBu)-[Phe(4-NO2)]-OMe; configuration not given here)	49	> 100	> 100	> 100	> 100	> 100	> 100	> 100	> 100	> 100
BrCC[P+](c1ccccc1)(c1ccccc1)c1ccccc1	17.6	> 100	17.6	5.17	> 100	8.02	16.5	26.8	29.1	39.6
CN(C)CCNc1nc2ccccc2c2c1C(=O)c1ccccc1-2	0.961	2.96	2.23	4.12	1.57	1.13	3.7	5.25	0.807	3.14
CSCCC(NC(=O)C(CC(C)C)NC(=O)CNC(=O)OC(C)(C)C)C(=O)N(C)C (stereo not drawn) (Boc-Gly-Leu-Met-NMe2; configuration not given here)	> 100	> 100	> 100	> 100	> 100	> 100	> 100	> 100	> 100	> 100
COc1cc(C2S/C(=C/c3ccccc3)C(=O)N2c2ccc(Cl)cc2)cc(OC)c1OC (stereo not given)	52.4	> 100	5.68	> 25.6	> 100	> 100	> 100	> 100	> 100	> 100
COC1=CC2(C=CC1=O)CCN=c1c(O)c3c(c(O)c12)=NC=N3 (stereo not given)	> 100	> 100	> 100	> 100	> 100	> 100	> 100	> 100	> 100	> 100
COc1ccc(C[C@H]2COC(=O)[C@@H]2Cc2cc(OC)c(OC)c(OC)c2)cc1OC	> 100	> 100	> 100	> 65.2	> 100	> 100	> 100	> 100	> 100	> 100
Cc1nn(C(=O)c2ccccc2O)c2c1C(c1ccc(O)cc1)SC(N)=N2 (stereo not given)	> 10	> 10	> 10	9.72	> 10	> 10	> 10	> 10	> 7.17	> 10
O=C1N2CCc3c([nH]c4ccccc34)C23CC2CCCC12S3 (stereo not given)	> 50	> 50	> 50	> 50	> 50	> 50	47.5	> 50	> 50	> 50
CC(C)CC1c2[nH]c3ccccc3c2C[C@H]2C(=O)NC(COC(C)(C)C)C(=O)N12 (stereo not given in full)	34.7	> 100	38.8	43.4	80.2	41	39.3	54.8	63.1	60.9
CC1=CC(c2ccccc2)n2c(nc3cc4ccccc4cc32)N1 (stereo not given)	> 100	> 100	> 100	> 100	> 100	> 100	> 100	> 100	> 100	> 100
CSC1(SC)CCCCCCCCCCC1	36.4	> 100	33.9	73.3	> 100	> 100	74	> 100	> 100	> 100
CN1C(=O)[C@@]2(C=CC3(CC2)OCCO3)c2ccccc21	> 50	> 50	> 50	> 50	> 50	> 50	> 50	> 50	> 50	> 50
Clc1ncc(C(Cl)(Cl)Cl)nc1-c1ccccc1	15.4	22.5	4.11	4.1	3.42	3.3	4.76	30.9	8.05	8.81
c1ccc(COc2ncccc2C2SCCCS2)cc1	> 100	> 100	> 100	> 100	> 100	> 100	> 100	> 100	> 100	> 100
N#Cc1nnc2c3c(-c4ccc(Cl)cc4)c(C#N)c(=O)[nH]c3nn2c1N	8.01	> 59.9	28.4	3.97	30.9	14.9	38.5	65.4	9.65	10.3
